Results reported in patent US5135849A, “In-vitro methods for identifying compositions which are agonists and antagonists of androgens” (priority 1989, dated 1992).
Like-named read-outs stand apart in the source and are kept apart here.

How the values were obtained:
LNCaP cells [1] = assay: Phase 1 protocol to identify androgen agonist properties (LNCaP cell proliferation in CDHS medium); format: cell-based, human; settings: for CHARACTERISTICS: classification from Phase 1 and Phase 2 protocols; for PHASE 1 CELL COUNT: final cell number per well at the optimal test conc.; for PHASE 1 CELL COUNT / cell yields compared with DHT alone, in words / OPTIMAL TEST CONC. (Phase 1): 10% CDHS; for cell yields compared with DHT alone, in words: 3×10^-8 M; for agonistic / proliferative activity, in words: Phase 1 protocol, CDHS-supplemented media; for RELATIVE PROLIFERATIVE POTENCY: Table II, 5α-DHT = 1.0, 5 × 10^4 cell inoculum grown in CDHS for 8 days
Description: This protocol measures the potential agonistic properties of the substance under test. All manipulations are to be carried out under sterile conditions using disposable plastic tissue culture multiwell plates with all manipulations preferrably being performed in a tissue culture hood.
1. The cell line of choice is the LNCaP-FGC cell culture, an androgen-sensitive prostate tumor cell line. The LNaP cell line is routinely grown in 5% fetal bovine serum--supplemented Dulbecco's modified Eagle minimal essential medium (hereinafter "5% FBS/DME"), at 37° C. in a 95% air--5% CO2 atmosphere.
2. The cultured cells growing in 5% FBS/DME are harvested by treatment with trypsin (1:250)--EDTA (0.2%). The cells are detached by brief exposure to trypsin for about two minutes. To avoid excessive proteolysis, the reaction is quenched by addition of equal volumes of 5% FBS/DME. The resulting cell suspension is collected into a sterile centrifuge tube and resuspended by pipetting gently. The aliquots of this cell suspension thus obtained are dispersed by means of a Skatron dispenser into individual wells containing the seedling medium (1 ml of 5% FBS/DME per well) of a multiwell plate. Each final prepared suspension preferably contains 50,000 cells in a volume of 1.0 ml. It is desirable that the number of cells be counted and verified by means of a Coulter Counter (Coulter Electronics, Hialeah, FL).
The number of wells in each plate will correspond to the number of concentrations per test substances to be evaluated and thus is merely a question of choice or convenience to the user. Into each well, 25 microliter (hereinafter "ul") aliquots of the prepared cell suspension are added using a 1.0 ml syringe fitted with a 19 gauge needle attached to a repetitive Dunn pipetter (Skatron Dispenser). The microtiter plate is then gently shaken to avoid unequal cell distribution within each individual well. The seeded cells are then allowed to attach to the plastic surface of the well proper over a period of 24-72 hours' duration after which the fluid is changed to the experimental maintaining medium.
3 At the time of test, all the seeded cells in each well of the multiwell plate receive 10% heat inactivated--charcoal-dextran human stripped serum (CDHS) in DME at a volume of 0.9 ml per well. Although higher concentrations of CDHS may be utilized up to and including 40% concentrations, the 10% concentration is most preferred.
5. To the other prepared (seeded) wells, 100 ul of the test substance to be evaluated is added as a 10X stock solution to achieve final concentrations ranging from 10^-5 M to at least 10^-12 M. The substance under test is preferably prepared as a stock solution in ethanol, most preferrably as a 10^-3 M solution. All dilutions from the stock preparation are made using DME. The ethanol concentration in the culture medium should be kept below […] by volume. This preparative technique and precaution avoids the need to filter the various volumes of test substance to achieve sterility. This is particularly valuable because steroidal compositions are known to become adsorbed to the commercially obtained filter membranes used for sterilization. The addition of the test substance in appropriate concentrations to the cultured cells and the maintaining medium forms a series of individual reaction mixtures, each of which is varied only by the concentration of the test substance present in the well.
6. After the series of individual reaction mixtures are formed, all of the cultured cells under test in each well of the microtiter plate are incubated at 37° C. preferably in an atmosphere of 5% CO2 /95% air under saturating humidity. During this incubation time, it is desired and preferred that the cultured cells employed in the test be maintained in an atmosphere most advantageous for survival and growth of that cell line. The incubation period preferably is in the range of from 5 to 7 days' duration.

LNCaP cells [2] = assay: Phase 2 protocol for androgen antagonistic properties (LNCaP proliferation with 3×10^-10 M 5α-DHT plus test substance); settings: for antagonistic activity, in words: Phase 2 protocol
androgen receptor = target: T1, androgen receptor (Homo sapiens, UniProt P10275, T878A); assay: Competition for androgen receptors with 3H-testosterone in LNCaP cytosol-nuclear extracts (RBA); format: binding; settings: for RBA (relative binding affinity to the androgen receptor): Table II, 5α-DHT = 100, 6×10^-9 M 3H-testosterone
T1 construct: the presence of specific androgen receptors in LNCaP cells; endogenous in cells; extract or intact cells for the saturation analysis
T1 sequence (P10275 whole entry T878A): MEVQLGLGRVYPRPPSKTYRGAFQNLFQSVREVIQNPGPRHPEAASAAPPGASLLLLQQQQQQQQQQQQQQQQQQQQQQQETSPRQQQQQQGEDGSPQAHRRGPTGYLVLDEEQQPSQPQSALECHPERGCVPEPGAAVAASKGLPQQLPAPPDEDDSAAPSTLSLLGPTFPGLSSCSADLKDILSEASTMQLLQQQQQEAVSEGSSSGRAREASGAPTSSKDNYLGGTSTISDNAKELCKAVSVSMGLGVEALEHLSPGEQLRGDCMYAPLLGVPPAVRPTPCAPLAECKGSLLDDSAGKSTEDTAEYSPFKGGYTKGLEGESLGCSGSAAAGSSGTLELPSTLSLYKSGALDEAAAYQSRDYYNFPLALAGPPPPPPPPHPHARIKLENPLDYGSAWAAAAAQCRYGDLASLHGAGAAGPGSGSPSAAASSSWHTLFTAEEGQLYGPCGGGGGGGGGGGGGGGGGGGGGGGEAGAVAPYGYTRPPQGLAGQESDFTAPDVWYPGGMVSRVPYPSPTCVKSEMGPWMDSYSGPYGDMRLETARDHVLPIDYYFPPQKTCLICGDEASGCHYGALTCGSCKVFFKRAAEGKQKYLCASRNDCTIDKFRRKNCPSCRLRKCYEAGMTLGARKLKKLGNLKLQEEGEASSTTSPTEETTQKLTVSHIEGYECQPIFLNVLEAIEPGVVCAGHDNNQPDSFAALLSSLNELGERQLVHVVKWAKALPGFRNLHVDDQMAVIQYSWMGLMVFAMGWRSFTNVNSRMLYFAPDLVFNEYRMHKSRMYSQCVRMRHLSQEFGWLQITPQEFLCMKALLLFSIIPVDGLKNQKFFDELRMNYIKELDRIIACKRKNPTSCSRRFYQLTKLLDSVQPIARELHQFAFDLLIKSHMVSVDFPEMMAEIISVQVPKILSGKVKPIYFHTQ
Procedure: (§1) Steroid receptors measurement: The presence of intracellular sex steroid binding proteins was investigated in whole cell extracts as well as in intact cells. Cytosolic and nuclear extracts were obtained after centrifugation (105,000 g, 45 min.) of a sonicated cellular suspension in TKE buffer (10 mM Tris, 500 mM KCl, 0.5 mM EDTA, pH 7.4). Aliquots of this extract were incubated for 18 hours at 4° C. with increasing concentrations (2×10^- M to 2×10^-8 M) of labelled steroids, with and without a 200-fold excess of the corresponding unlabelled steroid. Bound and free fractions were separated by dextran-coated charcoal adsorption. Intact cells grown in monolayer culture were assayed for specific steroid binding [Olea-Serrano et al., Eur. J. Cancer Clin. Oncol. 21:965-973 (1983)]. Briefly, the cells were incubated in 12-well plates during 50 minutes at 37° C. in DME containing the labelled steroid with and without excess of cold competitor. The range of concentrations used was the same as that in the cytosolic-nuclear extract assay. […] The intracellular radioactivity was extracted with ethanol after ice-cold PBS washing. In both types of experiments, Scatchard analysis of the saturation data was used to quantify the maximal binding capacity (Bmax) and the affinity parameters (dissociation constant, Kd) using the SCAFIT program [Munson et al., Anal. Biochem. 107:220-239 (1980)].
Cytosol-nuclear extracts were used to study competition for androgen receptors. […] The relative binding affinity (RBA) was calculated from the equation: […]

[3] = system: 3H-E2 binding in LNCaP cells; assay: Competition with 3H-E2 binding in LNCaP cells; design: species or system human
Procedure: as §1

[4] = with 3×10^-10 M 5α-DHT, 10% CDHS

Compound | CHARACTERISTICS (LNCaP cells [1]) | PHASE 1 CELL COUNT (LNCaP cells [1]) | antagonistic activity, in words (LNCaP cells [2]) | further results
C[C@]12CC[C@@H](O)C[C@@H]1CC[C@@H]1[C@@H]2CC[C@]2(C)[C@@H](O)CC[C@@H]12 [3α-diol, 5α-androstene, 3α,17β-diol] | full agonist | 2.5 × 10^5 |  | 
CC(=O)O[C@]1(C(C)=O)CC[C@H]2[C@@H]3C[C@H](C)C4=CC(=O)CC[C@]4(C)[C@H]3CC[C@@]21C [medroxy progesterone, medroxyprogesterone acetate] | full agonist | 4.0 × 10^5 | absence of antagonistic effects | OPTIMAL TEST CONC. (Phase II) (LNCaP cells [2]): 3 µM; PHASE II CELL COUNT (LNCaP cells [2]): 4.0 × 10^5
CC(=O)O[C@]1(C(C)=O)CC[C@H]2[C@@H]3C=C(Cl)C4=CC(=O)[C@@H]5C[C@@H]5[C@]4(C)[C@H]3CC[C@@]21C [cyproterone acetate] | full agonist | 4.1 × 10^5 |  | cell yields compared with DHT alone, in words (LNCaP cells [1]): increased cell yields at values consistently above those obtained with DHT alone
CC1(C)NC(=O)N(c2ccc([N+](=O)[O-])c(C(F)(F)F)c2)C1=O [anandron, 5,5-dimethyl-3-(4-nitro-3-(trifluoromethyl)-phenyl)-2,4-imidasolidinedione] | full agonist | 4.0 × 10^5 |  | cell yields compared with DHT alone, in words (LNCaP cells [1]): increased cell yields at values consistently above those obtained with DHT alone
CC(=O)[C@H]1CC[C@H]2[C@@H]3CCC4=CC(=O)CC[C@]4(C)[C@H]3CC[C@]12C [progesterone] | full agonists | 4 × 10^5 | no antagonistic activity | agonistic / proliferative activity, in words (LNCaP cells [1]): effective and potent androgen agonists
C[C@]12CCC(=O)C=C1CC[C@@H]1[C@@H]2[C@@H](O)C[C@@]2(C)[C@H]1CC[C@]2(O)C(=O)CO [hydrocortisone] | quiescent | 5 × 10^4 |  | 
C[C@]12CCC(=O)C[C@H]1CC[C@@H]1[C@@H]2CC[C@]2(C)[C@@H](O)CC[C@@H]12 [5β-DHT, 5β-dihydrotestosterone] | full agonist | 2.5 × 10^5 |  | 
epidermal growth factor: Epidermal Growth Factor (Collaborative Research; Creative Biomolecules) (NSDSECPLSHDGYCLHDGVCMYIEALDKYACNCVVGYIGERCQYRDLKWWELR; Epidermal growth factor; UniProt P01133 971-1023, looked up) | quiescent |  |  | OPTIMAL TEST CONC. (Phase 1) (LNCaP cells [1]): 100 ng/mL; OPTIMAL TEST CONC. (Phase II) (LNCaP cells [2]; [4]): 100 ng/mL
C[C@]12CC[C@@H]3c4ccc(O)cc4CC[C@H]3[C@@H]1CCC2=O [Estrone, estrone] |  |  |  | RBA (relative binding affinity to the androgen receptor) (androgen receptor): 0.1
C[C@]12CCC(=O)C[C@@H]1CC[C@@H]1[C@@H]2CC[C@]2(C)[C@@H](O)CC[C@@H]12 [5α-DHT, 5α-dihydrotestosterone] | full agonist | 2.5 × 10^5 |  | 
CC(C)(O)C(=O)Nc1ccc([N+](=O)[O-])c(C(F)(F)F)c1 [hydroxyflutamide] | full agonist | 3.9 × 10^5 | absence of antagonistic effects | cell yields compared with DHT alone, in words (LNCaP cells [1]): increased cell yields at values consistently above those obtained with DHT alone; RPP (relative proliferation potency) (LNCaP cells [1]; Table III, Testosterone = 1, 10^5 cell inoculum grown in CDHS for 7 days): 0.01; RBA (relative binding affinity to the androgen receptor extracted from LNCaP) (androgen receptor; Table III, Testosterone = 1): 0.004
CCC(=O)C1(C)CCC2C3CCC4=CC(=O)CCC4=C3CCC21C (stereo not drawn) [R5020, 17βmethyl-,21-methyl-19-nor-pregna-4,9-diene-3,10-dione] | full agonists | 4.0 × 10^5 | no antagonistic activity | agonistic / proliferative activity, in words (LNCaP cells [1]): effective and potent androgen agonists; RELATIVE PROLIFERATIVE POTENCY (LNCaP cells [1]): 0.01; RBA (relative binding affinity to the androgen receptor) (androgen receptor): 11
insulin: Insulin (Eli Lilly Company) | quiescent | 5 × 10^4 |  | OPTIMAL TEST CONC. (Phase 1) (LNCaP cells [1]): 100 ng/mL; OPTIMAL TEST CONC. (Phase II) (LNCaP cells [2]; [4]): 100 ng/mL
CC(=O)[C@H]1CC[C@H]2[C@@H]3CC=C4C[C@@H](O)CC[C@]4(C)[C@H]3CC[C@]12C [pregnenolone] | full agonist | 3.9 × 10^5 |  | proliferative potency (LNCaP cells [1]; compared with 5α-DHT values): 1%
C[C@@H]1CC2=CC(=O)CC[C@@H]2[C@H]2CC[C@@]3(C)[C@@H](CC[C@]3(C)O)[C@@H]21 [mibolerone, 7α,17α-dimethyl-19-nortestosterone] | full agonist | 2.5 × 10^5 |  | 
CC/C(=C(/CC)c1ccc(O)cc1)c1ccc(O)cc1 [DES, diethylstilbestrol] | full antagonist | 5 × 10^4 |  | agonistic / proliferative activity, in words (LNCaP cells [1]): no agonistic activity at all; competition with 3H-E2 binding, in words [3]: did not compete
C[C@]12CC[C@H]3[C@@H](CCC4=CC(=O)CC[C@@]43C)[C@@H]1CC[C@@H]2O [testosterone] | full agonist | 2.6 × 10^5 |  | agonistic / proliferative activity, in words (LNCaP cells [1]): proliferative pattern similar to that obtained with 5α-DHT
CC(C)C(=O)Nc1ccc([N+](=O)[O-])c(C(F)(F)F)c1 [flutamide] | quiescent | 5 × 10^4 |  | agonistic / proliferative activity, in words (LNCaP cells [1]): devoid of activity
C[C@]1(O)CC[C@H]2[C@@H]3CCC4=CC(=O)CCC4=C3C=C[C@@]21C [R1881, 17β-hydroxy-17α-methyl-estra-4,9,11-trien-3-one] | full agonists | 2.5 × 10^5 | no antagonistic activity | 
C[C@]12C[C@H](CCl)[C@@H]3c4ccc(O)cc4CC[C@H]3[C@@H]1CC[C@@H]2O [Org 4333, 11β-chloromethyl estradiol] | full agonists | 4.0 × 10^5 | no antagonistic activity | RELATIVE PROLIFERATIVE POTENCY (LNCaP cells [1]): 0.01; RBA (relative binding affinity to the androgen receptor) (androgen receptor): 1.2
